{
  "source": "patent US20090269798A1",
  "about": "“METHOD AND SYSTEM FOR SELECTING CHEMOTHERAPEUTIC AGENTS” (UNIVERSITY OF NORTHERN IOWA RESEARCH FOUNDATION, priority 2008, published 2009)",
  "key": {"[1]": {"test_system": "Jurkat (human T lymphocytic leukemia)", "details": "96 hours, ± standard deviation", "procedure": "(§1) In the experiments shown in Table1 a/b, the indicated concentrations of hydrogen peroxide were added to the various types of cells and they were incubated for 96 hours until growth was measured by the ^3H-thymidine assay or viability determined by the 3-(4,5-diphenylthiazol-2-yl)-2,5-diphenyltetrazolium bromide (“MTT”) assay. Numbers represent triplicate or quadruplicate determinations."}, "[2]": {"test_system": "K-562 (human erythroleukemia)", "details": "96 hours, ± standard deviation", "procedure": "as §1"}, "[3]": {"test_system": "THP-1 (human monocytic leukemia)", "details": "96 hours, ± standard deviation", "procedure": "as §1"}, "[4]": {"test_system": "YT-INDY (human NK cell leukemia)", "details": "96 hours, ± standard deviation", "procedure": "as §1"}, "Normal cells": {"test_system": "Normal cells", "details": "96 hours, ± standard deviation", "procedure": "as §1"}, "Jurkat cells": {"test_system": "Jurkat cells", "details": "four-hour exposure, 25 μM H2O2"}},
  "note": "Like-named read-outs stand apart in the source and are kept apart here. Marks after values point to notes of the source that are not given here.",
  "data": [
    {"smiles": "OO", "note": "[Hydrogen Peroxide, hydrogen peroxide]", "values": [
      {"measurement": "amount of cell division remaining (compared to control cells without hydrogen peroxide)", "setting": "[1]; 25 μM hydrogen peroxide", "value": "1.2 ± 0.4"},
      {"measurement": "amount of cell division remaining (compared to control cells without hydrogen peroxide)", "setting": "[1]; 50 μM hydrogen peroxide", "value": "2.4 ± 1.1"},
      {"measurement": "amount of cell division remaining (compared to control cells without hydrogen peroxide)", "setting": "[1]; 100 μM hydrogen peroxide", "value": "1.3 ± 1.1"},
      {"measurement": "amount of cell division remaining (compared to control cells without hydrogen peroxide)", "setting": "[1]; 200 μM hydrogen peroxide", "value": "1.0 ± 0.2"},
      {"measurement": "amount of cell division remaining (compared to control cells without hydrogen peroxide)", "setting": "[2]; 25 μM hydrogen peroxide", "value": "41.6 ± 24.5"},
      {"measurement": "level of live cells remaining (compared to control cells without hydrogen peroxide)", "setting": "[2]; 25 μM hydrogen peroxide", "value": "58.6 ± 3.2"},
      {"measurement": "amount of cell division remaining (compared to control cells without hydrogen peroxide)", "setting": "[2]; 50 μM hydrogen peroxide", "value": "7.1 ± 5.1"},
      {"measurement": "level of live cells remaining (compared to control cells without hydrogen peroxide)", "setting": "[2]; 50 μM hydrogen peroxide", "value": "19.6 ± 1.2"},
      {"measurement": "amount of cell division remaining (compared to control cells without hydrogen peroxide)", "setting": "[2]; 100 μM hydrogen peroxide", "value": "4.3 ± 2.6"},
      {"measurement": "level of live cells remaining (compared to control cells without hydrogen peroxide)", "setting": "[2]; 100 μM hydrogen peroxide", "value": "8.9 ± 0.2"},
      {"measurement": "amount of cell division remaining (compared to control cells without hydrogen peroxide)", "setting": "[2]; 200 μM hydrogen peroxide", "value": "2.7 ± 0.3"},
      {"measurement": "level of live cells remaining (compared to control cells without hydrogen peroxide)", "setting": "[2]; 200 μM hydrogen peroxide", "value": "8.0 ± 0.4"},
      {"measurement": "amount of cell division remaining (compared to control cells without hydrogen peroxide)", "setting": "[3]; 25 μM hydrogen peroxide", "value": "115.8 ± 10.6"},
      {"measurement": "level of live cells remaining (compared to control cells without hydrogen peroxide)", "setting": "[3]; 25 μM hydrogen peroxide", "value": "103.0 ± 2.2"},
      {"measurement": "amount of cell division remaining (compared to control cells without hydrogen peroxide)", "setting": "[3]; 50 μM hydrogen peroxide", "value": "102.8 ± 5.9"},
      {"measurement": "level of live cells remaining (compared to control cells without hydrogen peroxide)", "setting": "[3]; 50 μM hydrogen peroxide", "value": "101.8 ± 1.8"},
      {"measurement": "amount of cell division remaining (compared to control cells without hydrogen peroxide)", "setting": "[3]; 100 μM hydrogen peroxide", "value": "91.0 ± 0.2"},
      {"measurement": "level of live cells remaining (compared to control cells without hydrogen peroxide)", "setting": "[3]; 100 μM hydrogen peroxide", "value": "95.6 ± 0.6"},
      {"measurement": "amount of cell division remaining (compared to control cells without hydrogen peroxide)", "setting": "[3]; 200 μM hydrogen peroxide", "value": "63.2 ± 7.1"},
      {"measurement": "level of live cells remaining (compared to control cells without hydrogen peroxide)", "setting": "[3]; 200 μM hydrogen peroxide", "value": "65.6 ± 2.0"},
      {"measurement": "amount of cell division remaining (compared to control cells without hydrogen peroxide)", "setting": "[4]; 25 μM hydrogen peroxide", "value": "109.2 ± 2.4"},
      {"measurement": "level of live cells remaining (compared to control cells without hydrogen peroxide)", "setting": "[4]; 25 μM hydrogen peroxide", "value": "68.2 ± 4.8"},
      {"measurement": "amount of cell division remaining (compared to control cells without hydrogen peroxide)", "setting": "[4]; 50 μM hydrogen peroxide", "value": "2.8 ± 0.8"},
      {"measurement": "level of live cells remaining (compared to control cells without hydrogen peroxide)", "setting": "[4]; 50 μM hydrogen peroxide", "value": "32.1 ± 2.6"},
      {"measurement": "amount of cell division remaining (compared to control cells without hydrogen peroxide)", "setting": "[4]; 100 μM hydrogen peroxide", "value": "3.7 ± 2.5"},
      {"measurement": "level of live cells remaining (compared to control cells without hydrogen peroxide)", "setting": "[4]; 100 μM hydrogen peroxide", "value": "29.7 ± 1.0"},
      {"measurement": "amount of cell division remaining (compared to control cells without hydrogen peroxide)", "setting": "[4]; 200 μM hydrogen peroxide", "value": "10.2 ± 3.5"},
      {"measurement": "level of live cells remaining (compared to control cells without hydrogen peroxide)", "setting": "[4]; 200 μM hydrogen peroxide", "value": "27.5 ± 0.5"},
      {"measurement": "amount of cell division remaining (compared to control cells without hydrogen peroxide)", "setting": "Normal cells; 25 μM hydrogen peroxide", "value": "68.2 ± 5.4^b"},
      {"measurement": "level of live cells remaining (compared to control cells without hydrogen peroxide)", "setting": "Normal cells; 25 μM hydrogen peroxide", "value": "100.6 ± 3.3^b"},
      {"measurement": "amount of cell division remaining (compared to control cells without hydrogen peroxide)", "setting": "Normal cells; 50 μM hydrogen peroxide", "value": "84.4 ± 12.3"},
      {"measurement": "level of live cells remaining (compared to control cells without hydrogen peroxide)", "setting": "Normal cells; 50 μM hydrogen peroxide", "value": "102.7 ± 5.5"},
      {"measurement": "amount of cell division remaining (compared to control cells without hydrogen peroxide)", "setting": "Normal cells; 100 μM hydrogen peroxide", "value": "92.5 ± 19.9"},
      {"measurement": "level of live cells remaining (compared to control cells without hydrogen peroxide)", "setting": "Normal cells; 100 μM hydrogen peroxide", "value": "89.4 ± 0.9"},
      {"measurement": "amount of cell division remaining (compared to control cells without hydrogen peroxide)", "setting": "Normal cells; 200 μM hydrogen peroxide", "value": "81.9 ± 9.2"},
      {"measurement": "level of live cells remaining (compared to control cells without hydrogen peroxide)", "setting": "Normal cells; 200 μM hydrogen peroxide", "value": "83.0 ± 1.8"},
      {"measurement": "killing of Jurkat cells", "setting": "Jurkat cells", "value": "significant killing"}
    ]}
  ]
}
